Measurements taken from US11547681B2, “N-acylethanolamide derivatives and uses thereof” (ELIEM THERAPEUTICS, INC., priority 2016, dated 2023).

Tests used:
in vitro = conditions: for Concentration (μM) of analyte PEA, 0 min / Concentration (μM) of analyte PEA, 10 min / Concentration (μM) of analyte PEA, 20 min / Concentration (μM) of analyte PEA, 30 min / Concentration (μM) of analyte PEA, 60 min / % Remaining of Initial (n = 1), 0 min / % Remaining of Initial (n = 1), 10 min / % Remaining of Initial (n = 1), 20 min / % Remaining of Initial (n = 1), 30 min / % Remaining of Initial (n = 1), 60 min / microsomal CLint at 1 μM / half-life at 1 μM / microsomal CLint / half-life: both, human; for Concentration (μM) of analyte PEA, 0 min / Concentration (μM) of analyte PEA, 10 min / Concentration (μM) of analyte PEA, 20 min / Concentration (μM) of analyte PEA, 30 min / Concentration (μM) of analyte PEA, 60 min / % Remaining of Initial (n = 1), 0 min / % Remaining of Initial (n = 1), 10 min / % Remaining of Initial (n = 1), 20 min / % Remaining of Initial (n = 1), 30 min / % Remaining of Initial (n = 1), 60 min: 1 μM; for % Remaining of Initial (n = 1), 0 min: s9, 0 h; for % Remaining of Initial (n = 1), 10 min: s9, 10 min; for % Remaining of Initial (n = 1), 20 min: s9, 20 min; for % Remaining of Initial (n = 1), 30 min: s9, 0.5 h; for % Remaining of Initial (n = 1), 60 min: s9, 1 h; for microsomal CLint at 1 μM: s9, CLint (mL/min/mg protein)
Experimental: The reaction mixture, minus cofactors, was prepared as described below. The test article was added into the reaction mixture at a final concentration of 1 μM. […] An aliquot of the reaction mixture (without cofactor cocktail) was equilibrated in a shaking water bath at 37° C. for 3 minutes. The reaction was initiated by the addition of cofactor cocktail, and the mixture was incubated in a shaking water bath at 37° C. Aliquots (100 μL) were withdrawn at 0, 10, 20, 30, and 60 minutes. All samples were immediately combined with 400 uL of icecold 50/50 acetonitrile/H2O containing 0.1% formic acid and internal standard to terminate the reaction. The samples were then mixed and centrifuged to precipitate proteins. Calibration standards were prepared in matched matrix. All samples and standards were assayed by LC-MS/MS using electrospray ionization for both the dosed prodrug I-9 and the expected drug (PEA). Analytical conditions are outlined in Appendix 4-1. The test article concentration at each time point was compared to the test article concentration at time 0 to determine the percent remaining at each time point. Half-lives were calculated using GraphPad software, fitting to single-phase exponential decay equation.
(§1) Reaction mixture, minus cofactors, was prepared as described below. Test article was added into the reaction mixture at a final concentration of 1 μM. […] An aliquot of the reaction mixture (without cofactor cocktail) was equilibrated in a shaking water bath at 37° C. for 3 minutes. The reaction was initiated by the addition of cofactor cocktail, and the mixture was incubated in a shaking water bath at 37° C. Aliquots (100 μL) were withdrawn at 0, 10, 20, 30, and 60 minutes. Test article samples were immediately combined with 300 μL of ice-cold acetonitrile containing 1% formic acid. Control samples were immediately combined with 400 μL of ice-cold 50/50 acetonitrile (ACN)/dH2O containing 0.1% formic acid and internal standard to terminate the reaction. Samples were then mixed and centrifuged to precipitate proteins. Calibration standards were prepared in matched matrix. Samples and standards were assayed by LC-MS/MS using electrospray ionization for both the dosed prodrug and the expected drug (PEA). Analytical conditions are outlined in Appendix 8-1. Test article concentration at each time point was compared to test article concentration at time 0 to determine the percent remaining at each time point. Halflives were calculated using GraphPad software, fitting to a single-phase exponential decay equation.
as §1, with “for 5” for “for 3”, “minutes. Reaction” for “minutes. The reaction”, “and” for “and the”, “both” for “both the”, “Appendix 10-1.” for “Appendix 8-1.”
Reaction mixture, minus cofactors, was prepared as described below.

[1] = Plasma stability (37° C., pH 7.4), rat; type: in vitro ADME, Sprague-Dawley rat; conditions: test article 1 μM, 37° C.; for half-life at 1 μM: male, Sprague-Dawley, rat, plasma, pH 7.4, rat plasma, pH 7.4, read-out: Half-life; for % Remaining of Initial (n = 1), 0 min / % Remaining of Initial (n = 1), 15 min / % Remaining of Initial (n = 1), 30 min / % Remaining of Initial (n = 1), 60 min / % Remaining of Initial (n = 1), 120 min: rat plasma; for % Remaining of Initial (n = 1), 0 min: pH 7.4, 0 min; for % Remaining of Initial (n = 1), 15 min: pH 7.4, 15 min; for % Remaining of Initial (n = 1), 30 min: pH 7.4, 30 min; for % Remaining of Initial (n = 1), 60 min: pH 7.4, 60 min; for % Remaining of Initial (n = 1), 120 min: pH 7.4, 120 min
Experimental: (§2) Studies were carried out in mixed-gender human plasma (Lot #GLP530-5), male Sprague-Dawley rat (Lot #RAT297944, RAT313140), male CD-1 mouse (Lot #MSE237700), and male Beagle dog (Lot #BGL87670, BGL82614), collected on sodium heparin. Plasma was adjusted to pH 7.4 prior to initiating the experiments. DMSO stocks were first prepared for the test articles. Aliquots of the DMSO solutions were dosed into 700 μL of plasma, which had been pre-warmed to 37° C., at a final test article concentration of 1 μM. […] Samples were stored at 4° C. until the end of the experiment. After the final time point was sampled, the plate was mixed and then centrifuged at 3,000 rpm for 10 minutes. Calibration standards were prepared in matched matrix. […] Analytical conditions are outlined in Appendix 8-1.
as §2, with “#AS1650-2),” for “#GLP530-5),”, “#RAT297944),” for “#RAT297944, RAT313140),”, “CD-I” for “CD-1”, “#BGL91384),” for “#BGL87670, BGL82614),”, “10-1.” for “8-1.”
Studies were carried out in mixed-gender human plasma (Lot #AS1650-2), male Sprague-Dawley rat (Lot #RAT297944), male CD-1 mouse (Lot #MSE237700), and male Beagle dog (Lot #BGL91384), collected on sodium heparin. Plasma was adjusted to pH 7.4 prior to initiating the experiments. DMSO stocks were first prepared for test articles. […] Samples were stored at 4° C. until the end of experiment. After the final time point was sampled, the plate was mixed and then centrifuged at 3,000 rpm for 10 minutes. Calibration standards were prepared in matched matrix. […] Analytical conditions are outlined in Appendix 13-1.
Studies were carried out in mixed-gender human plasma (Lot #AS 1650-2), male Sprague-Dawley rat (Lot #RAT320835), male CD-1 mouse (Lot #MSE260693), and 6 male Beagle dog (Lot #BGL91384), on sodium heparin. Plasma was adjusted to pH 7.4 prior to initiating the experiments. DMSO stocks were first prepared for the test articles. Aliquots of the DMSO solutions were dosed into 700 μL of plasma, which had been pre-warmed to 37° C., at a final test article concentration of 1 μM. […] Samples were stored at 4° C. until the end of the experiment. After the final time point was sampled, the plate was mixed and then centrifuged at 3,000 rpm for 10 minutes. Calibration standards were prepared in matched matrix. […] Analytical conditions are outlined in Appendix 17-1.

| Structure (SMILES) | Concentration (μM) of analyte PEA, 0 min (in vitro) | Concentration (μM) of analyte PEA, 10 min (in vitro) | Concentration (μM) of analyte PEA, 20 min (in vitro) | Concentration (μM) of analyte PEA, 30 min (in vitro) | Concentration (μM) of analyte PEA, 60 min (in vitro) | % Remaining of Initial (n = 1), 0 min (in vitro) | % Remaining of Initial (n = 1), 10 min (in vitro) | % Remaining of Initial (n = 1), 20 min (in vitro) | % Remaining of Initial (n = 1), 30 min (in vitro) | % Remaining of Initial (n = 1), 60 min (in vitro) | half-life at 1 μM [1] | % Remaining of Initial (n = 1), 0 min [1] | % Remaining of Initial (n = 1), 15 min [1] | % Remaining of Initial (n = 1), 30 min [1] | % Remaining of Initial (n = 1), 60 min [1] | % Remaining of Initial (n = 1), 120 min [1] | microsomal CLint at 1 μM (in vitro) | half-life at 1 μM (in vitro; s9, Half-life (min)) | also measured |
| --- | --- | --- | --- | --- | --- | --- | --- | --- | --- | --- | --- | --- | --- | --- | --- | --- | --- | --- | --- |
| CCCCCCCCCCCCCCCC(=O)NCCOC(=O)CCC [Compound I-2] | 0.011 µM | 0.057 µM | 0.075 µM | 0.067 µM | 0.11 µM | 100% | 73% | 41% | 28% | 9.6% | 49 min | 100% | 58% | 59% | 46% | 18% |  |  |  |
| CCCCCCCCCCCCCCCC(=O)NCCOC(=O)CCC(=O)OCC(COC(=O)CCCCCCC)OC(=O)CCCCCCC (centres unmarked) [Compound I-3, PEA-Succinate-Glycerol-Di-Caprylic] | 0 µM | 0.0027 µM | 0.025 µM | 0.034 µM | 0.048 µM | 100% | 76% | 86% | 83% | 60% | > 120 min | 100% | 94% | 79% | 76% | 79% | < 11.6 µL/min/mg | > 60 min |  |
| CC/C=C\C/C=C\C/C=C\C/C=C\C/C=C\CCCC(=O)OCCNC(=O)CCCCCCCCCCCCCCC [Compound I-5] | 0 µM | 0.050 µM | 0.063 µM | 0.074 µM | 0.10 µM | 100% | 82% | 49% | 38% | 45% | > 120 min | 100% | 85% | 90% | 87% | 83% | 21.6 µL/min/mg | 32 min |  |
| CCCCC/C=C\C/C=C\CCCCCCCC(=O)OCCNC(=O)CCCCCCCCCCCCCCC [Compound I-6] | 0.0089 µM | 0.023 µM | 0.043 µM | 0.056 µM | 0.072 µM | 100% | 109% | 103% | 82% | 70% | 110 min | 100% | 93% | 119% | 100% | 29% | < 11.6 µL/min/mg | > 60 min | microsomal CLint at 1 μM (in vitro; calculated value in parentheses): 6.82 µL/min/mg; half-life at 1 μM (in vitro; s9, Half-life (min), calculated half-life in parentheses): 102 min |
| CCCCCCCCCCCCCCCC(=O)NCCOC(=O)CCC(=O)OC[C@H]1O[C@@](CO)(O[C@H]2O[C@H](CO)[C@@H](O)[C@H](O)[C@H]2O)[C@@H](O)[C@@H]1O [Compound I-7] | 0.090 µM | 0.46 µM | 0.62 µM | 0.63 µM | 0.48 µM | 100% | 46% | 22% | 9.8% | 3.8% | < 1 min | 100% | <1.0% | <1.0% | <1.0% | <1.0% |  |  |  |
| C[C@]12CC[C@H]3[C@@H](CCC4=CC(=O)CC[C@@]43C)[C@@H]1CC[C@@H]2O [Testosterone, testosterone, reference compound] |  |  |  |  |  |  |  |  |  |  |  |  |  |  |  |  |  |  | microsomal CLint (in vitro; s9, CLint, Control Compound, Human intestinal S9 fraction): 50.9 µL/min/mg; microsomal CLint (in vitro; s9, CLint, Human intestinal S9 fraction, control compound): 50.9 µL/min/mg; microsomal CLint (in vitro; s9, Clint, control compound, Example 4 control run): 26.9 µL/min/mg; half-life (in vitro; s9, Half-life (min), control compound, human intestinal S9 fraction): 7.8 min; half-life (in vitro; s9, Half-life, control compound, Example 4 control run): 26 min; half-life (in vitro; s9, Half-life, control compound, human intestinal S9 fraction): 4.8 min; CLin (in vitro; control compound, human intestinal S9 fraction): 0.144 ml/min/mg protein |
